# Patent US11311524B2, “Pharmaceutical composition used for treatment of HTLV-1-associated myelopathy” (DAIICHI SANKYO COMPANY, LIMITED, priority 2017, dated 2022)
# Legend:
# [1] = test system: HAM patient-derived PBMC; test: Autoproliferation (3H-thymidine incorporation) of HAM patient-derived PBMC without stimulation; type: cell-based, human; details: for GI50: Homo sapiens, PBMC of 8 HAM patients, 6 days culture, 3H-thymidine, read-out: GI50, autoproliferation activity of HAM patient-derived PBMC; for Suppression of autoproliferation activity of HAM patient-derived PBMC: no stimulation, relative to DMSO group
# Experimental: PBMC taken from 8 HAM patients were suspended in culture mediums (RPMI1640 culture medium (wako) containing 10% FBS (GIBCO)), seeded in a 96-well round-bottom plate in a ratio of 1×10^5 cells per well (3 wells were used for each concentration), and compound A or compound B was added so as to provide a final concentration of 1, 10, 100 or 1000 nM. Culture was carried out at 37° C. in 5% CO2 conditions for 6 days. The DMSO treatment group and the PSL (1 μg/mL) treatment group were used as controls. Day 6 after initiation of culture, 1 μCi ^3H-thymidine was added to each well and culture was carried out at 37° C., in 5% CO2 conditions for 16 hours. Thereafter, the cultured cells were allowed to adsorb to a glass filter (Printed Filtermat A, PerkinElmer) by a cell harvester (Tomtec MH3, PerkinElmer), dried and impregnated with solid scintillator Meltilex-A (PerkinElmer). The amount of the ^3H-thymidine incorporated in the cells was measured by use of MicroBeta (WALLAC MicroBeta TriLux 1450-021) (Yamano et al., PLoS One. 2009, 4(8): e6517). Based on the average count of ^3H-thymidine in the DMSO treatment group of HAM patients' PBMC as 100%, the relative values of the groups treated with compound A, compound B and PSL (1 μg/mL) were obtained by calculation, and then, an average value of 8 HAM patient cases was obtained. A significance test was carried out in accordance with the Friedman test of GraphPad Prism6 (MDF).
# The number of patients was increased to 16 and the same experiment as above was carried out.
# Effect on HAM patient-derived PBMC was checked in the same manner as in the above Example except that an EZH2 inhibitor was used in place of compounds A and B.
# As the EZH2 inhibitor, GSK126 (CAS No.: 1346574-57-9) and E7438 (CAS No.: 1403254-99-8) were used. The concentration for treatment was 1, 10, 100, 1000 or 10000 nM in terms of final concentration. In the experiment, PBMC samples taken from the 8 persons before the number of cases increased in the above were used.
# [2] = test system: HTLV-1 infected cells in HAM patient's PBMC; test: HTLV-1 pro-viral load (infected cell rate) in HAM patient-derived PBMC by real time PCR; type: cell-based, human; details: PSL 1 μg/ml control, this experimental system or clinical sites
# Experimental: PBMC taken from 8 HAM patients were suspended in a culture medium (RPMI1640 culture medium containing 10% FBS) and seeded in a 48-well plate in a ratio of 5×10^5 cells per well, and compound A or compound B was added so as to provide a final concentration of 1, 10, 100 or 1000 nM. The culture solution of 0.5 mL in total was cultured at 37° C. in 5% CO2 conditions for 12 days. A group treated with DMSO and a group treated with PSL (1 μg/mL) were used as controls. Day 12 after initiation of culture, the culture solution was centrifuged, and thereafter, the cell suspension was recovered from each of the cultures carried out under different conditions and centrifuged. After the supernatant was removed, the cell pellet was subjected to genomic DNA extraction. The genome DNA extracted was subjected to real time PCR to measure HTLV-1 pro-viral load (infected cell rate) (Yamano et al., Blood. 2002, 99 (1): 88-94). Based on the HTLV-1 pro-viral load in cells, which were obtained by adding DMSO to each of the HAM patient's PBMC and culturing the PBMC, as 100%, the relative value of HTLV-1 pro-viral load in a group treated with compound A, compound B or PSL was calculated, and then, an average value of 8 HAM patient cases was obtained. The significance test was carried out by using the Friedman test of GraphPad Prism6 (MDF).
SMILES,GI50 [1] [nM],Suppression of autoproliferation activity of HAM patient-derived PBMC [1],Infected cell removal activity [2]
"CCN(c1cc(-c2ccc(CN3CCOCC3)cc2)cc(C(=O)NCc2c(C)cc(C)[nH]c2=O)c1C)C1CCOCC1 [E7438, N-((4,6-Dimethyl-2-oxo-1,2-dihydropyridin-3-yl)methyl)-5-(ethyl(tetrahydro-2H-piran-4-yl)amino)-4-methyl-4′-(morpholinomethyl)-[1,1′-biphenyl]-3-carboxamide, reference compound]",214,suppress autoproliferation activity,–
"CC[C@H](C)n1cc(C)c2c(C(=O)NCc3c(C)cc(C)[nH]c3=O)cc(-c3ccc(N4CCNCC4)nc3)cc21 [GSK126, N-[(1,2-Dihydro-4,6-dimethyl-2-oxo-3-pyridinyl)methyl]-3-methyl-1-[(1S)-1-methylpropyl]-6-[6-(1-piperazinyl)-3-pyridinyl]-1H-indole-4-carboxamide, reference compound]",724,suppress autoproliferation activity,–
"C[C@]12C=CC(=O)C=C1CC[C@@H]1[C@@H]2[C@@H](O)C[C@@]2(C)[C@H]1CC[C@]2(O)C(=O)CO [PSL, prednisolone, reference compound]",–,can suppress autoproliferation activity,does not exhibit infected cell removal activity
